# Data taken from patent US20250090510A1, “eIF4G1-eIF1 INHIBITORS AND USE THEREOF” (YEDA RESEARCH AND DEVELOPMENT CO. LTD., priority 2022, published 2025).
# How the values were obtained:
# [1] = target: T1, eIF1-eIF4G1 interaction (Homo sapiens, UniProt Q04637); assay: GST pull down of His-eIF1 with GST-eIF4G1; format: binding; conditions: GST-eIF4G1 (aa 675-725) with His-eIF1, vs DMSO
# T1 construct: GST-eIF4G1 (aa 675-725) was incubated with His-eIF1; made in house; host or cells: His-eIF1: E. coli BL21
# T1 sequence (Q04637 675-725): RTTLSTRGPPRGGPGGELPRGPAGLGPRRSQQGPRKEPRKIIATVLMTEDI
# Text: FIGS. 1A-G: Identification and initial characterization of eIF1-eIF4G1 inhibitors using a high-throughput drug screen (HTS). (1A) A flowchart describing the steps of the recombinant eIF1-eIF4G1 split-RL HTS. (1B) Selection of drugs that inhibit leaky scanning. HEK293T cells were transfected with a short 5′UTR bearing GFP reporter gene described on the top, treated with the indicated HTS hits, and then analyzed by western blot with GFP antibody. US and DS denote upstream and downstream AUG initiation sites, respectively. (1C) A graph showing the change in the ratio of the upstream and downstream AUG following treatment with the indicated drugs. (1D) The chemical structure of the eIF1-eIF4G1 inhibitors, i14G1-10 and i14G1-12. (1E) His-tagged eIF4G1 and His-tagged eIF1 were expressed in BL21 bacteria and purified using nickel NTA beads. Purified His-tagged eIF4G1 and His-tagged eIF1 were incubated with the indicated doses of either i14G1-10 (0-256 μM) or i14G1-12 (0-256 μM) for 5 minutes, followed by fluorescence measurement. For eIF4G1 excitation was at 280 nm and emission was at 350 nm. For eIF1 excitation was at 274 nm and emission was at 304 nm. The data shown represent three independent replicates. IC50 was calculated using Graphpad prism 9. (1F-1G) Western blots of GST pull down. […]
# [2] = system: eIF2α S52A mutant cells; assay: Polysome profiling and real-time PCR in eIF2α S52A mutant cells; format: cell-based, mouse; conditions: i14G1-10 30 μM, i14G1-12 15 μM, 3 h; for translation of ISR genes in polysome fractions: S52A cells; for overall translation, polysome to monosome ratio (P/M): S52A mutant cells
# Text: FIGS. 6A-G: i14G1-10 and i14G1-12 uncover roles of the eIF4G1-eIF1 complex in ISR, cell cycle and cell survival. […] (6B). Ribo-seq and TI-seq read tracks of representative stress response-associated mRNAs (i.e., ATF3, and GADD45A) in DMSO (black), i14G1-10 (red), and i14G1-12 (green) samples. The red triangle represents 5′UTR TIS codons and the green denotes annotated TIS. Black arrows show the translation direction. (6C) Mouse embryonic fibroblasts (MEFs) control cells and eIF2αS52A mutant MEF cells were treated with Thapsigargin (1 μM) for 1h. Cells were lysed, and cell lysate was analyzed using western blot with the indicated antibodies. (6D) Control cells and eIF2αS52A mutant MEF cells were treated with DMSO, i14G1-10 (30 μM) or i14G1-12 (15 μM) for 3 h, cells were lysed in polysome buffer and loaded onto sucrose density gradient for polysome separation followed by fractionation. The graph presents the polysomes vs monosomes ratio in control MEFs (purple) and eIF2αS52A mutant cells (blue). (6E) Fractions were pooled (from 6D) according to the polysome profile as free (grey), light (blue), and heavy (yellow) polysomal fractions. cDNA was prepared from each fraction pool and real-time PCR was performed for the indicated stress response genes. The data are shown as mean±SEM, n=3. The asterisks denote statistically significant differences compared to DMSO, according to Student's t-tests (one-tailed, paired), *p<0.05; **p<0.01. (6F-G). HEK293T cells were transfected with HA-eIF1 or HA-eIF4E, 48 h later, treated with (6F) 1 μM Thapsigargin or (6G) 250 nM Torin-1. Cell lysates were subjected to immunoprecipitation with HA-agarose beads to precipitate HA-eIF1 and HA-eIF4E to check for co-IP of eIF4G1 using western blot (left). The graphs on the right represent the relative chemiluminescence signal intensity of the co-immunoprecipitation of eIF4G1 with HA-eIF1 or HA-eIF4E of 4 independent experiments. The asterisks denote statistically significant difference compared to DMSO *p<0.05; **p<0.01.
# FIGS. 7A-E: (7A) Ribo-seq and TI-seq read tracks of representative stress response-associated mRNAs (DDIT3 and GADD34) in DMSO (black), i14G1-10 (red), and i14G1-12 (green) samples. The red triangle represents 5′UTR TIS codons and the green denotes annotated TIS. Black arrows show the translation direction. […] The graphs in the lower panel are the quantification of ATF4's uORF1′, uORF1, uORF2, and main-ORF reads of the Ribo-seq data. The asterisks denote statistically significant difference compared to DMSO, according to Student's t-tests (one-tailed, paired). **p<0.01, ***p<0.001, ****p<0.0001. (7C) HEK293T cells were treated with DMSO, i14G1-10, and i14G1-12 for 3 h, lysed and subjected to sucrose gradient sedimentation and fractionation. […]
SMILES,association of eIF1 with eIF4G1 [1],translation of ISR genes in polysome fractions [2],"overall translation, polysome to monosome ratio (P/M) [2]"
O=C(/C=C/Sc1ccc(C(F)(F)F)cn1)c1ccccc1 [i14G1-10],decrease in the association of eIF1 with eIF4G1,upregulated,not significantly
Cn1ccnc1S/C(=C/C=C(C#N)C#N)c1ccc(Cl)cc1 [i14G1-12],decrease in the association of eIF1 with eIF4G1,upregulated,further inhibited
